The source of these data is US20170057955A1, “Pyridopyrimidinone Compounds for Modulating the Catalytic Activity of Histone Lysine Demethylases (KDMs)” (Dong-A Socio Holdings Co., Ltd., priority 2015, published 2017).

For the test, the target named is T1, Recombinant human JARID1B/KDM5B (Homo sapiens, UniProt Q9UGL1).
T1 construct: purchased Active Motif 31432; host or cells: Sf9 insect cells
T1 sequence (Q9UGL1 whole entry): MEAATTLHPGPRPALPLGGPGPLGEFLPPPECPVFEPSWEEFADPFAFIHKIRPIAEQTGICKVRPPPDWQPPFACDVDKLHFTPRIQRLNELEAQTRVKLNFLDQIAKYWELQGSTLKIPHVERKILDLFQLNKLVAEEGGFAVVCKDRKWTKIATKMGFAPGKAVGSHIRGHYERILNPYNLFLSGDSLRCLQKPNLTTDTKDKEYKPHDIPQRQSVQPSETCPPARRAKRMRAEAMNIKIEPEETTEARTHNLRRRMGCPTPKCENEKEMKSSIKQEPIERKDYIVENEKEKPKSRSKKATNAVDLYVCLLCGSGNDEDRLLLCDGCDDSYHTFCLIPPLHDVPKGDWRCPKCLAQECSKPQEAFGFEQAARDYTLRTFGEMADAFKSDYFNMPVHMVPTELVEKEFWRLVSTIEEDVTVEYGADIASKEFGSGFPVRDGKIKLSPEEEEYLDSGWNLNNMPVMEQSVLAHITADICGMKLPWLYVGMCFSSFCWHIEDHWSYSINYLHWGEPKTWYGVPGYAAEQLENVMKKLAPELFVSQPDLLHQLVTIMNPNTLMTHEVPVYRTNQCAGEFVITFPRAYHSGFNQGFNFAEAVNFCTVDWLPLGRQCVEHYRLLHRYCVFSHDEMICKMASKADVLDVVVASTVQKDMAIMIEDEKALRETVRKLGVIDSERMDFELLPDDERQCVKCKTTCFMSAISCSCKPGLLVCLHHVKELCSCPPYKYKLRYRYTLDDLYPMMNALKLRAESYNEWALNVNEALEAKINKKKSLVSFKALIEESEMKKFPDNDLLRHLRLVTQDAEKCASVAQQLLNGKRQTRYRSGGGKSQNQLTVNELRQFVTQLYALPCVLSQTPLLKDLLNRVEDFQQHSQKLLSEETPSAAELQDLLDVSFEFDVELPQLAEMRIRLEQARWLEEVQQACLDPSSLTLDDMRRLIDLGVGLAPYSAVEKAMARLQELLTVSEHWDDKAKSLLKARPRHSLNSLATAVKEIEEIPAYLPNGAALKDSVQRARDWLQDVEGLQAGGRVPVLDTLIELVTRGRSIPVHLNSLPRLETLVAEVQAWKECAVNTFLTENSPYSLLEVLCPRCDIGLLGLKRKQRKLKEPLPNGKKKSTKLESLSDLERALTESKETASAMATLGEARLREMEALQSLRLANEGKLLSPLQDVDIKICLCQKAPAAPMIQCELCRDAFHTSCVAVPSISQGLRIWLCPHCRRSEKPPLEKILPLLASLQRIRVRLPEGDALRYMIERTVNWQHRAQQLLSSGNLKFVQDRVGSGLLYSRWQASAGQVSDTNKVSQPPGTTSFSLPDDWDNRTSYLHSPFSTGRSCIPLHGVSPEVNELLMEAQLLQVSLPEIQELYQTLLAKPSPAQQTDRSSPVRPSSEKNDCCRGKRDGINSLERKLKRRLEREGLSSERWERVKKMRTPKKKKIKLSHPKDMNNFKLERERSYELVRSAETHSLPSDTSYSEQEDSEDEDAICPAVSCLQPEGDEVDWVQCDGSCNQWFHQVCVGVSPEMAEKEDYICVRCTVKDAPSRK
In words: LANCE Ultra TR-FRET JARID1B (KDM5B) demethylase inhibition assay. It counts as biochemical. The settings on record: 0.1 uM of test-compounds, FLAG-JARID1B, 500 nM biotinylated H3K4me3 peptide substrate, 30 min at room temperature. A digest of the protocol: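 FLAG-tagged JARID1B from Sf9 cells, pre-incubated 5 min with 0.1 uM compound (1% DMSO), then 500 nM biotinylated H3K4me3 peptide, 500 uM 2-OG, 25 uM Fe(II), 2 mM ascorbate in pH 7.5 Hepes buffer. After 30 min at room temperature, H3K4me2/1 product detected by TR-FRET (665/590 nm ratio).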
Regarding `CN1CCN(CCNc2nc(-c3nccc4c(=O)[nH]c(COCc5ccccc5)nc34)cs2)CC1` [Compound 151, 2-((benzyloxy)methyl)-8-(2-((2-(4-methylpiperazin-1-yl)ethyl)amino)thiazol-4-yl)pyrido[3,4-d]pyrimidin-4(3H)-one], the inhibition at 0.1 µM is under 20%.

With `CN1CCCC1CCNc1nc(-c2nccc3c(=O)[nH]c(COCc4ccccc4)nc23)cs1` (stereo not drawn) [Compound 152, 2-((benzyloxy)methyl)-8-(2-((2-(1-methylpyrrolidin-2-yl)ethyl)amino)thiazol-4-yl)pyrido[3,4-d]pyrimidin-4(3H)-one], the inhibition at 0.1 µM is under 20%.

In the case of `O=c1[nH]c(COCc2ccccc2)nc2c(-c3csc(NCC4CCN(CCO)CC4)n3)nccc12` [Compound 153, 2-((benzyloxy)methyl)-8-(2-(((1-(2-hydroxyethyl)piperidin-4-yl)methyl)amino)thiazol-4-yl)pyrido[3,4-d]pyrimidin-4(3H)-one], the inhibition at 0.1 µM is under 20%.

`COCCN1CCC(CNc2nc(-c3nccc4c(=O)[nH]c(COCc5ccccc5)nc34)cs2)CC1` [Compound 154, 2-((benzyloxy)methyl)-8-(2-(((1-(2-methoxyethyl)piperidin-4-yl)methyl)amino)thiazol-4-yl)pyrido[3,4-d]pyrimidin-4(3H)-one]: the inhibition at 0.1 µM is under 20%.

`CN1CCC(Nc2nc(-c3nccc4c(=O)[nH]c(COCc5ccccc5)nc34)cs2)CC1` [Compound 155, 2-((benzyloxy)methyl)-8-(2-((1-methylpiperidin-4-yl)amino)thiazol-4-yl)pyrido[3,4-d]pyrimidin-4(3H)-one]: the inhibition at 0.1 µM lay in the range of 20 to 50%.

Consider `O=c1[nH]c(COc2cccc(-c3ccccc3)c2)nc2c(-c3csc(NCCO)n3)nccc12` [Compound 156, 2-(([1,1′-biphenyl]-3-yloxy)methyl)-8-(2-((2-hydroxyethyl)amino)thiazol-4-yl)pyrido[3,4-d]pyrimidin-4(3H)-one], for which the inhibition at 0.1 µM was 20 to 50%.

In the case of `O=c1[nH]c(COc2ccc(Oc3ccccc3)cc2)nc2c(-c3csc(NCCO)n3)nccc12` [Compound 157, 8-(2-((2-hydroxyethyl)amino)thiazol-4-yl)-2-((4-phenoxyphenoxy)methyl) pyrido[3,4-d]pyrimidin-4(3H)-one], the inhibition at 0.1 µM is under 20%.

With `CC(C)(c1ccccc1)c1ccc(OCc2nc3c(-c4csc(NCCO)n4)nccc3c(=O)[nH]2)cc1` [Compound 158, 8-(2-((2-hydroxyethyl)amino)thiazol-4-yl)-2-((4-(2-phenylpropan-2-yl)phenoxy)methyl)pyrido [3,4-d]pyrimidin-4(3H)-one], the inhibition at 0.1 µM is under 20%.

Take `O=c1[nH]c(COc2ccc(C3CCCC3)cc2)nc2c(-c3csc(NCCO)n3)nccc12` [Compound 159, 2-((4-cyclopentylphenoxy)methyl)-8-(2-((2-hydroxyethyl)amino)thiazol-4-yl)pyrido[3,4-d]pyrimidin-4(3H)-one]: the inhibition at 0.1 µM was under 20%.

For `O=C(c1ccccc1)c1ccc(OCc2nc3c(-c4csc(NCCO)n4)nccc3c(=O)[nH]2)cc1` [Compound 160, 2-((4-benzoylphenoxy)methyl)-8-(2-((2-hydroxyethyl)amino)thiazol-4-yl)pyrido[3,4-d]pyrimidin-4(3H)-one], the inhibition at 0.1 µM lay in the range of 20 to 50%.

With `O=c1[nH]c(CCc2ccccc2)nc2c(-c3csc(NCCO)n3)nccc12` [Compound 161, 8-(2-((2-hydroxyethyl)amino)thiazol-4-yl)-2-phenethylpyrido[3,4-d]pyrimidin-4(3H)-one], the inhibition at 0.1 µM lay within 20 to 50%.

Consider `CN(C)CCNc1nc(-c2nccc3c(=O)[nH]c(CCc4ccccc4)nc23)cs1` [Compound 162, 8-(2-((2-(dimethylamino)ethyl)amino)thiazol-4-yl)-2-phenethylpyrido[3,4-d]pyrimidin-4(3H)-one], for which the inhibition at 0.1 µM was in the range of 20 to 50%.

As for `CN1CCC(Nc2nc(-c3nccc4c(=O)[nH]c(CCc5ccccc5)nc34)cs2)CC1` [Compound 163, 8-(2-((1-methylpiperidin-4-yl)amino)thiazol-4-yl)-2-phenethylpyrido[3,4-d]pyrimidin-4(3H)-one], the inhibition at 0.1 µM was in the range of 20 to 50%.

With `O=c1[nH]c(CCc2ccccc2)nc2c(-c3csc(NC4CCN(Cc5ccccc5)CC4)n3)nccc12` [Compound 164, 8-(2-((1-benzylpiperidin-4-yl)amino)thiazol-4-yl)-2-phenethylpyrido[3,4-d]pyrimidin-4(3H)-one], the inhibition at 0.1 µM is at least 50%.

As to `Nc1nc(-c2nccc3c(=O)[nH]c(CCc4ccc(F)cc4)nc23)cs1` [Compound 165, 8-(2-aminothiazol-4-yl)-2-(4-fluorophenethyl)pyrido[3,4-d]pyrimidin-4(3H)-one], the inhibition at 0.1 µM lay within 20 to 50%.

Consider `Nc1nc(-c2nccc3c(=O)[nH]c(CCCc4ccccc4)nc23)cs1` [Compound 166, 8-(2-aminothiazol-4-yl)-2-(3-phenylpropyl)pyrido[3,4-d]pyrimidin-4(3H)-one], for which the inhibition at 0.1 µM lay in the range of 20 to 50%.

As for `O=c1[nH]c(-c2cc3ccccc3o2)nc2c(-c3csc(NCCO)n3)nccc12` [Compound 167, 2-(benzofuran-2-yl)-8-(2-((2-hydroxyethyl)amino)thiazol-4-yl)pyrido[3,4-d]pyrimidin-4(3H)-one], the inhibition at 0.1 µM was in the range of 20 to 50%.

For the compound `C[C@H](O)CNc1nc(-c2nccc3c(=O)[nH]c(-c4cc5ccccc5o4)nc23)cs1` [Compound 168, (S)-2-(benzofuran-2-yl)-8-(2-((2-hydroxypropyl)amino)thiazol-4-yl)pyrido[3,4-d]pyrimidin-4(3H)-one], the inhibition at 0.1 µM is under 20%.
